Source: patent publication US8129499B2 (priority 2008, dated 2012)
Where two headings read alike, the source gives them in different places. Residues, ends and D or L forms follow the SMILES beside them. No end group written: not given here.

Assays:
purified PR/8 virus = test system: purified PR/8 virus; design: species or system influenza virus A/PuertoRico/8/34 (PR/8, H1N1)
MDCK cells = conditions: 5-75 μM peptide, 24 hours, in words
cRBCs = conditions: for effect on cRBC membrane integrity: at any concentration (1-30 μM), in words
in vitro = conditions: dog, MDCK cells
[1] = 10 μM peptide, 64 HA units of purified A/PR/8/34, Yes/No
[2] = 10 μM peptide, mock treated virus (64 HAU) = 100% hemagglutination
[3] = 0.1-10 μM peptide, 64 HA units purified PR/8, estimated from dose response curves (Table 3)

| Compound | HA inhibition (purified A/PR/8/34) | % inhibition (purified A/PR/8/34; 10 μM) [%] | other results |
| --- | --- | --- | --- |
| O=C(CCCCCCC(=O)ON1C(=O)CCC1=O)ON1C(=O)CCC1=O [DSS, disuccinimidyl suberate, reference compound] | – | – | virion aggregation by electron microscopy (purified PR/8 virus): large aggregates |
| N=C(N)NCCC[C@H](NC(=O)[C@@H](N)CCCNC(=N)N)C(=O)N[C@@H](CCCCN)C(=O)N[C@@H](CCCCN)C(=O)O [SEQ. ID. NO: 17, RRKK] (H-RRKK-OH; N-terminus and C-terminus assumed) | No | 0 | antiviral activity (purified A/PR/8/34): no antiviral activity |
| EEDDLAVLLALLA [SEQ ID NO: 54, EEDDLAVLLALLA] | – | 0 | – |
| KKLAVLLALLA [SEQ ID NO: 53, KKLAVLLALLA] | – | 0 | – |
| KLAVLLALLA [SEQ ID NO: 52, KLAVLLALLA] | – | 25 | – |
| RKAVLLALLA [SEQ ID NO: 51, RKAVLLALLA] | – | 50 | viral hemagglutination activity (FIG. 7) (purified A/PR/8/34): detected to a lesser extent |
| RKKLAVLLALLA [SEQ ID NO: 50, RKKLAVLLALLA] | – | 75 | EC50 (purified A/PR/8/34): 8000 nM; viral hemagglutination activity (FIG. 7) (purified A/PR/8/34): detected to a lesser extent |
| RRKKA [SEQ. ID. NO: 16, RRKKA] | No | 0 | – |
| RRKKAA [SEQ. ID. NO: 15, RRKKAA] | No | 0 | – |
| RRKKAAAAAAAAA [SEQ ID NO: 49, RRKKAAAAAAAAA] | – | 87.5 | EC50 (purified A/PR/8/34): ~7000 nM; viral hemagglutination activity (FIG. 7) (purified A/PR/8/34): detected to a lesser extent |
| RRKKAALLVLAALAVLA [SEQ. ID. NO: 30, RRKKAALLVLAALAVLA] | No | 0 | – |
| RRKKAAV [SEQ. ID. NO: 14, RRKKAAV] | No | 0 | – |
| RRKKAAVA [SEQ. ID. NO: 13, RRKKAAVA] | No | 0 | – |
| RRKKAAVAL [SEQ. ID. NO: 12, RRKKAAVAL] | No | 0 | – |
| RRKKAAVALL [SEQ. ID. NO: 11, RRKKAAVALL] | No | 0 | – |
| RRKKAAVALLAVLLALLA [SEQ. ID. NO: 43, RRKKAAVALLAVLLALLA] | – | – | HA inhibition (purified A/PR/8/34; [1]): Yes; % inhibition (purified A/PR/8/34; [2]): 95±2%; EC50 (purified A/PR/8/34; [3]): 1600 ± 1200 nM |
| RRKKAAVALLP [SEQ. ID. NO: 10, RRKKAAVALLP] | No | 4 ± 8 | – |
| RRKKAAVALLPA [SEQ. ID. NO: 9, RRKKAAVALLPA] | No | 0 | – |
| RRKKAAVALLPAV [SEQ. ID. NO: 8, RRKKAAVALLPAV] | No | 0 | – |
| RRKKAAVALLPAVL [SEQ. ID. NO: 7, RRKKAAVALLPAVL] | No | 0 | – |
| RRKKAAVALLPAVLL [SEQ. ID. NO: 6, RRKKAAVALLPAVLL] | No | 0 | – |
| RRKKAAVALLPAVLLA [SEQ. ID. NO: 5, RRKKAAVALLPAVLLA] | Yes | 96 ± 3 | EC50 (purified A/PR/8/34): 2800 ± 1100 nM |

| Compound | HA inhibition (purified A/PR/8/34) | % inhibition (purified A/PR/8/34; 10 μM) [%] | other results |
| --- | --- | --- | --- |
| RRKKAAVALLPAVLLAL [SEQ. ID. NO: 4, RRKKAAVALLPAVLLAL] | Yes | 89 ± 3 | EC50 (purified A/PR/8/34): 3800 ± 1900 nM |
| RRKKAAVALLPAVLLALL [SEQ. ID. NO: 3, RRKKAAVALLPAVLLALL] | – | – | HA inhibition (purified A/PR/8/34; [1]): Yes; % inhibition (purified A/PR/8/34; [2]): 95 ± 2%; EC50 (purified A/PR/8/34; [3]): 600 ± 300 nM |
| RRKKAAVALLPAVLLALLA [SEQ. ID. NO: 2, RRKKAAVALLPAVLLALLA] | – | – | HA inhibition (purified A/PR/8/34; [1]): Yes; % inhibition (purified A/PR/8/34; [2]): 94 ± 2%; EC50 (purified A/PR/8/34; [3]): 500 ± 300 nM |
| RRKKAAVALLPAVLLALLAP [EB, reference compound] | – | – | % inhibition (purified A/PR/8/34; [2]): 95 ± 2%; % inhibition (purified A/PR/8/34; 10 μM peptide, normalized to EB-treated (10 μM EB) virus (64 HAU) = 100% inhibition (Table 4)): 100%; EC50 (purified A/PR/8/34; [3]): 2600 nM; EC50 (purified A/PR/8/34; Example 6, Table 4): 2000 nM; toxicity against MDCK cells (MDCK cells): limited toxicity; effect on cRBC membrane integrity (cRBCs): no effect |
| RRKKALLAP [SEQ. ID. NO: 25, RRKKALLAP] | No | 0 | – |
| RRKKALLPAVLLALLAP [SEQ. ID. NO: 20, RRKKALLPAVLLALLAP] | Yes | 94 ± 3 | EC50 (purified A/PR/8/34): 700 ± 300 nM |
| RRKKAP [SEQ. ID. NO: 28, RRKKAP] | No | 0 | – |
| RRKKAVALLPAVLLALLAP [SEQ. ID. NO: 18, RRKKAVALLPAVLLALLAP] | – | – | HA inhibition (purified A/PR/8/34; [1]): Yes; % inhibition (purified A/PR/8/34; [2]): 94 ± 6%; EC50 (purified A/PR/8/34; [3]): 800 ± 300 nM |
| RRKKLAALPLVLAAPLAVLA [EBX, reference compound] | – | 0 | effect on cRBC membrane integrity (cRBCs): no effect |
| RRKKLAP [SEQ. ID. NO: 27, RRKKLAP] | No | 0 | – |
| RRKKLAVAAALLA [SEQ ID NO: 55, RRKKLAVAAALLA] | – | 0 | – |
| RRKKLAVLLAAAA [SEQ ID NO: 56, RRKKLAVLLAAAA] | – | 0 | – |
| RRKKLAVLLALLA [SEQ. ID. NO: 45, RRKKLAVLLALLA] | Yes | – | virion aggregation by electron microscopy (purified PR/8 virus): large aggregates; EC50 (purified A/PR/8/34): 3000 nM |
| RRKKLLALLAP [SEQ. ID. NO: 24, RRKKLLALLAP] | No | 0 | – |
| RRKKLLAP [SEQ. ID. NO: 26, RRKKLLAP] | No | 0 | – |
| RRKKLLAVLLALLA [SEQ ID NO: 44, RRKKLLAVLLALLA] | Yes | 95±2 | EC50 (purified A/PR/8/34): 3000 nM |
| RRKKLLPAVLLALLAP [SEQ. ID. NO: 21, RRKKLLPAVLLALLAP] | Yes | 94 ± 4 | EC50 (purified A/PR/8/34): 800 ± 300 nM |
| RRKKLPAVLLALLAP [SEQ. ID. NO: 22, RRKKLPAVLLALLAP] | Yes | – | viral hemagglutination activity (FIG. 7) (purified A/PR/8/34): the same as that for the EB peptide |
| RRKKP [SEQ. ID. NO: 29, RRKKP] | No | 0 | – |
| RRKKVALLAVLLALLA [SEQ. ID. NO: 32, RRKKVALLAVLLALLA] | – | 94 ± 4 | EC50 (purified A/PR/8/34): 500 ± 500 nM; toxicity against MDCK cells (MDCK cells): significant toxicity; lysis (hemoglobin release) compared to SDS treated control (cRBCs; 10 μM peptide): 71%; lysis (hemoglobin release) compared to SDS treated control (cRBCs; 30 μM peptide): 100%; concentration inducing hemoglobin release (cRBCs; 0.5% cRBC, 1 hour at 37° C.): exceeding 5 μM; viability at 24 h, 75 µM (in vitro): 20% |
| RRKKVALLPAVLLALLAP [SEQ. ID. NO: 19, RRKKVALLPAVLLALLAP] | – | – | HA inhibition (purified A/PR/8/34; [1]): Yes; % inhibition (purified A/PR/8/34; [2]): 94 ± 4%; EC50 (purified A/PR/8/34; [3]): 500 ± 400 nM |
| RRKKVLLALLAP [SEQ. ID. NO: 23, RRKKVLLALLAP] | Yes | 90 ± 4 | EC50 (purified A/PR/8/34): 4000 ± 800 nM |
